Data published in patent publication US20260008862A1, “Bispecific Anti-BCMA x Anti-CD3 Antibodies and Uses Thereof” (Regeneron Pharmaceuticals, Inc., priority 2018, published 2026).
“Also recorded” adds a separate entry of the source.

Assays:
[1] = system: Jurkat/NFATLuc.3C7 cells + MM1-S cells; assay: Jurkat/NFATLuc reporter bioassay with MM1-S cells; type: cell-based; conditions: highest RLU / lowest RLU
Method: (§1) Activity of the anti-BCMA×anti-CD3 bispecific antibodies were assessed in a Jurkat/NFATLuc reporter bioassay utilizing several cell lines with varying levels of BCMA surface expression. The Jurkat cells were engineered to express an NFAT-luciferase reporter (Jurkat/NFATLuc.3C7), and 50,000 Jurkat reporter cells were combined with 50,000 BCMA positive (Daudi, MM1-S, NCI-H929, OPM-2, RPMI-8226, MOLP-8, or Raji) or BCMA negative (HEK293) cells in Thermo Nunclon delta 96 well white microwell plates (Thermo Scientific, Cat #136102) in 50 ul of assay media (RPMI media with 10% FBS and 1% P/S/G). Three-fold serial dilutions of the BCMA×CD3 bispecific antibodies (mAb25441 D or mAb25442D), or a bivalent anti-BCMA antibody (mAb21581) were immediately added in 50 μL of assay buffer. The plates were gently agitated and incubated in a 37° C., 5% CO2 incubator for 4-6 hours. NFAT-Luciferase activity was determined using Promega One-Glo (Cat #E6130) and a Perkin Elmer Envision plate reader. RLU were plotted in GraphPad Prism using a four-parameter logistic equation over a 12-point response curve to calculate EC50 values. […] The signal to noise (S:N) is determined by taking the ratio of the highest RLU on the curve to the lowest.

[2] = biological target: T1, cynomolgus CD3 (mfCD3 engineered Jurkat cell line) (Macaca fascicularis, UniProt Q95LI5+Q95LI8); assay: FACS binding to mfCD3 engineered Jurkat cells; conditions: median EC50, FACS binding
T1 construct: expressed in transfected cells; host or cells: Jurkat cells, CRISPR/Cas9-engineered (mfCD3 engineered Jurkat cell line)
Method: Flow cytometric analysis was utilized to determine binding of BCMA×CD3 bispecific antibodies to human and cynomolgus CD3 (Jurkat cells, mfCD3 engineered Jurkat cells, primary human CD8+ and cynomolgus CD8+ T cells). Briefly, 1e05 cells/well were incubated in the presence of FACS wash with block (PBS+1% filtered FBS+5% mouse serum) with a serial dilution of BCMA×CD3 and control antibodies for 30 minutes on ice. After incubation, the cells were washed twice with cold FACS wash (PBS+1% filtered FBS) and bound antibody was detected by incubating with Alexa647-conjugated anti-human secondary antibody on ice for an additional 30 minutes. Wells containing no antibody or secondary only were used as a control. For the detection of monkey and human T cells, a cocktail of human and cynomolgus cross-reactive antibodies to CD4, CD8 and CD16 was added to the anti-human secondary. After incubation, cells were washed, re-suspended in 200 μL cold PBS containing 1% filtered FBS and analyzed by flow cytometry on a BD FACS Canto II. Cells were gated by FSC-H by FSC-A to select singlet events, followed by side and forward scatters to select for live events. For monkey T cells, additional gating on CD8+/CD16− cells was performed.
EC50 values for FACS binding were calculated using 4-parameter non-linear regression analysis in Prism software. […]

[3] = system: Jurkat/NFATLuc.3C7 cells + RPMI-8226 cells; assay: Jurkat/NFATLuc reporter bioassay with RPMI-8226 cells; type: cell-based; conditions: highest RLU / lowest RLU
Method: as §1

[4] = system: established BCMA-expressing NCI-H929 tumors; assay: Established NCI-H929 + PBMC xenogenic tumor model, treatment from day 5 (Example 12); type: in vivo, mouse; conditions: for Average Tumor Size (mm3) ± SEM on Day 5: Day 5 (day of first dose)
Method: To determine the in vivo efficacy of anti-BCMA×anti-CD3 bispecific antibodies (Abs), a xenogenic tumor study was performed. Immunodeficient NOD.Cg-Prkdc^scidIl2rg^tm1Wji/SzJ (NSG) mice were subcutaneously implanted with a mixture of 10×10^6 BCMA-expressing NCI-H929 human multiple myeloma tumor cells and 0.5×10^6 human peripheral blood mononuclear cells (PBMC) isolated from a normal, healthy donor. The tumors were allowed to grow and establish for 5 days until they were approximately 70 mm^3 in size. […] The mice were administered these Abs twice per week for a total of seven doses, and tumor growth was assessed over 55 days. While BCMA^+ NCI-H929 tumors grew similarly in the vehicle- and CD3-binding control-treated mice, both BCMA×CD3 Abs that were tested shrank established tumors and prevented the growth of tumors in a dose-dependent manner in vivo.
Implantation and measurement of xenogenic tumors: NSG mice were subcutaneously implanted with a mixture of 10×10^6 BCMA-expressing NCI-H929 multiple myeloma cells and 0.5×10^6 PBMC derived from a normal, healthy donor. The tumors were allowed to grow and establish for 5 days until they were approximately 70 mm^3 in size. […] The mice were administered Abs twice per week for a total of seven doses. Tumor growth was measured with calipers twice per week for the duration of the experiment.
Calculation of xenogenic tumor growth and inhibition: In order to determine tumor volume by external caliper, the greatest longitudinal diameter (length in mm) and the greatest transverse diameter (width in mm) were determined. Tumor volumes based on caliper measurements were calculated by the formula: Volume (mm^3) […] (length×width^2)/2.

T1 sequence (Q95LI5 22-198, change not shown): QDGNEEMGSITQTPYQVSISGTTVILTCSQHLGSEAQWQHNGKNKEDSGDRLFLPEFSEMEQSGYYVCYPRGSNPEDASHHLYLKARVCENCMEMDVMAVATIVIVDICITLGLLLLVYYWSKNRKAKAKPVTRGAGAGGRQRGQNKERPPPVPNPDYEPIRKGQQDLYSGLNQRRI
T1 sequence (Q95LI8 22-171, change not shown): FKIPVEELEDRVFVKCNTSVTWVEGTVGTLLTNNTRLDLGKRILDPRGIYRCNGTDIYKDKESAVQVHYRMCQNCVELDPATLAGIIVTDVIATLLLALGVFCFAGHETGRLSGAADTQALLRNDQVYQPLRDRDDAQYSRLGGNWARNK
T1 sequence (P09693 23-182 partner): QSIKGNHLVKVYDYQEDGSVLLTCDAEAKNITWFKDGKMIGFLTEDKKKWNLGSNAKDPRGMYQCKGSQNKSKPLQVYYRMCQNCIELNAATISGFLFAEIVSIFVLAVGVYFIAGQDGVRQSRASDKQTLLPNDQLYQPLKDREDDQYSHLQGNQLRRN
T1 sequence (P20963 22-164 partner): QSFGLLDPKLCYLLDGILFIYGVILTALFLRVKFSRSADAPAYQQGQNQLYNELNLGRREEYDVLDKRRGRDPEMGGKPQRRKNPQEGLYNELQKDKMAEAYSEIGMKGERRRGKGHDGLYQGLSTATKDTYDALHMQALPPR

Row | Substance | S:N [1] | S:N [3] | Average Tumor Size (mm3) ± SEM on Day 5 ([4]; 0.04 mg/kg) | Average Tumor Size (mm3) ± SEM on Day 8 ([4]; 0.04 mg/kg) | Average Tumor Size (mm3) ± SEM on Day 12 ([4]; 0.04 mg/kg) | Average Tumor Size (mm3) ± SEM on Day 15 ([4]; 0.04 mg/kg) | Average Tumor Size (mm3) ± SEM on Day 19 ([4]; 0.04 mg/kg) | Average Tumor Size (mm3) ± SEM on Day 22 ([4]; 0.04 mg/kg) | Average Tumor Size (mm3) ± SEM on Day 5 ([4]; 0.4 mg/kg) | Average Tumor Size (mm3) ± SEM on Day 8 ([4]; 0.4 mg/kg) | Average Tumor Size (mm3) ± SEM on Day 12 ([4]; 0.4 mg/kg) | Average Tumor Size (mm3) ± SEM on Day 15 ([4]; 0.4 mg/kg) | Average Tumor Size (mm3) ± SEM on Day 19 ([4]; 0.4 mg/kg) | Average Tumor Size (mm3) ± SEM on Day 22 ([4]; 0.4 mg/kg) | Average Tumor Size (mm3) ± SEM on Day 27 ([4]; 0.4 mg/kg) | Average Tumor Size (mm3) ± SEM on Day 30 ([4]; 0.4 mg/kg) | Average Tumor Size (mm3) ± SEM on Day 35 ([4]; 0.4 mg/kg) | Average Tumor Size (mm3) ± SEM on Day 40 ([4]; 0.4 mg/kg) | Average Tumor Size (mm3) ± SEM on Day 55 ([4]; 0.4 mg/kg) | Average Tumor Size (mm3) ± SEM on Day 5 ([4]; 4 mg/kg) | also measured
1 | REGN5458: anti-BCMA×anti-CD3 bispecific antibody: BCMA HCVR of mAb21581 (SEQ 66), CD3 HCVR of mAb7221G (SEQ 90), common LCVR SEQ 82 | 165 | 55 | 58.1 ± 5.6 mm3 | 130.3 ± 16.7 mm3 | 525.9 ± 71.5 mm3 | 1031.2 ± 164.3 mm3 | 2467.5 ± 370.0 mm3 | 3745.7 ± 541.2 mm3 | 69.3 ± 7.3 mm3 | 120.3 ± 16.3 mm3 | 262.7 ± 61.6 mm3 | 476.2 ± 133.5 mm3 | 1347.5 ± 334.7 mm3 | 2068.5 ± 465.0 mm3 | 3463.9 ± 1025.0 mm3 | 2144.2 ± 2144.2 mm3 | 0 ± 0 mm3 | 0 ± 0 mm3 | 0 ± 0 mm3 | 71.9 ± 10.3 mm3 | EC50 [2]: 15.1 nM; Average Tumor Size (mm3) ± SEM on Day 27 ([4]; 0.04 mg/kg): 1589.1 ± 0 mm3; Average Tumor Size (mm3) ± SEM on Day 30 ([4]; 0.04 mg/kg): 2886.5 ± 0 mm3; Average Tumor Size (mm3) ± SEM on Day 8 ([4]; 4 mg/kg): 64.7 ± 16.4 mm3; Average Tumor Size (mm3) ± SEM on Day 12 ([4]; 4 mg/kg): 19.5 ± 10.9 mm3; Average Tumor Size (mm3) ± SEM on Day 15 ([4]; 4 mg/kg): 25.6 ± 19.2 mm3; Average Tumor Size (mm3) ± SEM on Day 19 ([4]; 4 mg/kg): 40.6 ± 32.8 mm3; Average Tumor Size (mm3) ± SEM on Day 22 ([4]; 4 mg/kg): 78.3 ± 60.8 mm3; Average Tumor Size (mm3) ± SEM on Day 27 ([4]; 4 mg/kg): 252.3 ± 185.1 mm3; Average Tumor Size (mm3) ± SEM on Day 30 ([4]; 4 mg/kg): 411.3 ± 307.2 mm3; Average Tumor Size (mm3) ± SEM on Day 35 ([4]; 4 mg/kg): 633.5 ± 473.5 mm3; Average Tumor Size (mm3) ± SEM on Day 40 ([4]; 4 mg/kg): 369.5 ± 369.5 mm3; Average Tumor Size (mm3) ± SEM on Day 55 ([4]; 4 mg/kg): 0 ± 0 mm3
2 | REGN5459: anti-BCMA×anti-CD3 bispecific antibody: BCMA HCVR of mAb21581 (SEQ 66), CD3 HCVR of mAb7221G20 (SEQ 98), common LCVR SEQ 82 | 120 | 42 | 74.9 ± 6.4 mm3 | 152.3 ± 20.0 mm3 | 462.5 ± 57.7 mm3 | 1094.2 ± 78.9 mm3 | 2412.5 ± 184.6 mm3 | 3285.9 ± 227.3 mm3 | 69.5 ± 4.1 mm3 | 171.9 ± 23.2 mm3 | 233.8 ± 63.5 mm3 | 327.2 ± 135.6 mm3 | 606.2 ± 288.8 mm3 | 815.4 ± 387.1 mm3 | 1849.9 ± 903.1 mm3 | 661.8 ± 490.1 mm3 | 996.8 ± 771.0 mm3 | 375.6 ± 375.6 mm3 | 0 ± 0 mm3 | 61.8 ± 5.2 mm3 | Jurkat-mfCD3 EC50 [M] [2]: did not bind; also recorded: No Binding; Average Tumor Size (mm3) ± SEM on Day 8 ([4]; 4 mg/kg): 45.8 ± 9.8 mm3; Average Tumor Size (mm3) ± SEM on Day 15 ([4]; 4 mg/kg): 0 ± 0 mm3; Average Tumor Size (mm3) ± SEM on Day 19 ([4]; 4 mg/kg): 0 ± 0 mm3; Average Tumor Size (mm3) ± SEM on Day 22 ([4]; 4 mg/kg): 0 ± 0 mm3; Average Tumor Size (mm3) ± SEM on Day 27 ([4]; 4 mg/kg): 0 ± 0 mm3; Average Tumor Size (mm3) ± SEM on Day 30 ([4]; 4 mg/kg): 0 ± 0 mm3; Average Tumor Size (mm3) ± SEM on Day 35 ([4]; 4 mg/kg): 0 ± 0 mm3; Average Tumor Size (mm3) ± SEM on Day 40 ([4]; 4 mg/kg): 0 ± 0 mm3; Average Tumor Size (mm3) ± SEM on Day 55 ([4]; 4 mg/kg): 0 ± 0 mm3
